Experimental data: US20200230126A1, “TARGETED THERAPEUTICS” (TARVEDA THERAPEUTICS, INC., priority 2017, published 2020)

What was measured:
[1] = Repeat dose GLP toxicity study in dogs; type: in vivo, dog; details: for AUC(0-t): in vivo, 20 mg/kg, at the HNSTD, read-out: exposure (AUCt)
Procedure: (§1) The SDC-TRAP-0063 selected starting dose is 30 mg IV on D1, D8, and D15 of each 28-day cycle. ICH S9 recommends that a starting clinical dose for a first-in-human study should be either 1/10th of the STD10 in rodent toxicity studies or ⅙th of the HNSTD in non-rodent toxicity studies.
(§2) Based on the findings in the repeat dose GLP toxicity study in rats, the dose of one-tenth the rat STD10 gives a Human Equivalent Dose (HED) of 0.48 mg/kg informing the SDC-TRAP-0063 first-in-human starting dose (Table 10). The calculation based on the dog highest non-severe toxic dose (HNSTD) of 20 mg/kg determined in the repeat dose GLP toxicity study in dogs is shown in Table 11 and results in a higher HED of 1.9 mg/kg substantiating that rat is the more sensitive species. The human starting dose of 0.48 mg/kg is equivalent to 18 mg/m^2. Assuming an average human weight of 60 kg, the starting dose translates to 29 mg or using an average body surface area of 1.7 m^2, the starting dose is 30 mg.

[2] = Repeat dose GLP toxicity study in rats; type: in vivo, rat; details: for AUC(0-t): in vivo, 30 mg/kg, at the STD10 in the GLP toxicology study
Procedure: as §1, §2

tumor cells = assay: DNA double-strand breaks in tumor cells; type: cell-based; details: treatment of tumor cells
Procedure: The histone H2A variant H2AX (γ-H2AX) is an indicator of DNA double-strand breaks and is a sensitive marker of DNA damage response. During the DNA damage response, double-stranded breaks (DSB) are generated that result in the rapid phosphorylation of γ-H2AX. […] These DSBs can be quantitated by measuring γ-H2AX levels. In in vivo pharmacology studies, PDc response to SDC-TRAP-0063 was assessed by immunostaining for γ-H2AX and was associated with anti-tumor activity of SDC-TRAP-0063. γ-H2AX has been used in clinical studies to monitor DNA damage induced by topoisomerase I inhibition, ionizing radiation, or Weel inhibition. During Phase 1 only, for patients who sign the provision of optional tumor biopsies and hair follicle collections, levels of γ-H2AX are evaluated in paired tumor biopsies and hair follicles to check for evidence of SDC-TRAP-0063-induced DNA damage response. Based on the mechanism of action of SDC-TRAP-0063, it would be expected that evidence of DNA damage, as measured by γ-H2AX and/or other markers of DNA damage, would be greater in tumor tissue compared to hair follicle. It is estimated that 10 high quality pairs of tumor biopsies and hair follicles are needed to adequately explore the relationship between SDC-TRAP-0063 treatment and DNA damage response.

[3] = Light sensitivity of the diluted solution; type: physicochemical; details: duration of 6 hours
Excerpt: The diluted solution is attached to an infusion set free of diethylhexyl-phthalate (DEHP) and containing a 0.2 micron filter.

Exposure in mice = details: mouse, in vivo, 20 mg/kg dose
Procedure: (§3) Exposures achieved in these toxicology studies exceed the levels anticipated to show anti-tumor activity, based on anti-tumor efficacy determined in mice. The minimum dose for anti-tumor efficacy in mice xenografts was determined to be 20 mg/kg with once weekly administration. […] This exposure is similar to that in rats at the STD10 in the GLP toxicology study where the AUCt values determined were 107 and 68 μg·h/mL in males and female rats, respectively. The mouse exposure is lower that the exposure at the HNSTD in dogs, 181 and 183 μg·h/mL in male and female dogs, respectively. Using body surface area, the dog HNSTD for SDC-TRAP-0063 is 6.6-fold higher than the minimum dose for efficacy in the mouse while the rat STD10 is 3 fold higher.

mice xenografts = assay: Anti-tumor efficacy in mice xenografts; type: in vivo, mouse; details: once weekly administration
Procedure: as §3

[4] = pH-dependent equilibrium of lactone ring and open chain carboxylic acid form in solution; type: physicochemical
Excerpt: In solution, SDC-TRAP-0063 contains a lactone ring at pH-dependent equilibrium with the corresponding open chain carboxylic acid form.

[5] = mg/kg human dose multiplied by 37

With `CCc1c2c(nc3ccc(OC(=O)N4CCC(CCn5ccc6cc(-n7c(O)nnc7-c7cc(C(C)C)c(O)cc7O)ccc65)CC4)cc13)-c1cc3c(c(=O)n1C2)COC(=O)[C@]3(O)CC` [SDC-TRAP-0063] the “HED of 1/6 Dog HNSTD” value ([1]; 1/6 dog HNSTD divided by 1.8 (60 kg human)) was 1.9 mg/kg, the “1/6 Dog HNSTD” value ([1]; dog) was 3.3 mg/kg and the AUC(0-t) ([1]; dog, female dogs) was 183 µg·h/mL. The AUC(0-t) ([1]; dog, male dogs) was 181 µg·h/mL, the “Dog 1/6 HNSTD” value ([1]; mg/kg dose in dog multiplied by 20) was 67 mg/m^2 and the “HED of 1/6 Dog HNSTD” value [1, 5] was 69 mg/m^2. The “Dog HNSTD” value ([1]; repeat dose GLP toxicity study in dogs) was 20 mg/kg, the “dog HNSTD relative to the minimum dose for efficacy in the mouse” value ([1]; using body surface area) was 6.6 fold and the “HED of 1/10 Rat STD10” value ([2]; 1/10 rat STD10 divided by 6.2 (60 kg human)) was 0.48 mg/kg. For the same molecule, the “Rat 1/10 STD10” value ([2]; mg/kg dose in rat multiplied by 6) was 18 mg/m^2, the “HED of 1/10 Rat STD10” value [2, 5] was 18 mg/m^2 and the “1/10 Rat STD10” value ([2]; rat) was 3.0 mg/kg. For the same molecule, the AUC(0-t) ([2]; rat, female rats) was 68 µg·h/mL, the AUC(0-t) ([2]; rat, male rats) was 107 µg·h/mL and the “Rat STD10” value ([2]; repeat dose GLP toxicity study in rats) was 30 mg/kg. The “rat STD10 relative to the minimum dose for efficacy in the mouse” value ([2]; using body surface area) was 3 fold, the “DNA double-stranded breaks (DSBs)” value (tumor cells) was “induces DNA DSBs” and the “light sensitivity of the diluted solution” value [3] was “not light sensitive”. The AUC(0-t) (Exposure in mice) was 112 µg·h/mL, the “minimum dose for anti-tumor efficacy” value (mice xenografts) was 20 mg/kg and the pKa [4] was 9.3.
